Where two headings read alike, the source gives them in different places.
Key:
[1] = molecular target: T1, AChE (Homo sapiens, UniProt P22303); format: biochemical
Target sequence in this assay (P22303 32-617 isoform P22303-2 limits assumed): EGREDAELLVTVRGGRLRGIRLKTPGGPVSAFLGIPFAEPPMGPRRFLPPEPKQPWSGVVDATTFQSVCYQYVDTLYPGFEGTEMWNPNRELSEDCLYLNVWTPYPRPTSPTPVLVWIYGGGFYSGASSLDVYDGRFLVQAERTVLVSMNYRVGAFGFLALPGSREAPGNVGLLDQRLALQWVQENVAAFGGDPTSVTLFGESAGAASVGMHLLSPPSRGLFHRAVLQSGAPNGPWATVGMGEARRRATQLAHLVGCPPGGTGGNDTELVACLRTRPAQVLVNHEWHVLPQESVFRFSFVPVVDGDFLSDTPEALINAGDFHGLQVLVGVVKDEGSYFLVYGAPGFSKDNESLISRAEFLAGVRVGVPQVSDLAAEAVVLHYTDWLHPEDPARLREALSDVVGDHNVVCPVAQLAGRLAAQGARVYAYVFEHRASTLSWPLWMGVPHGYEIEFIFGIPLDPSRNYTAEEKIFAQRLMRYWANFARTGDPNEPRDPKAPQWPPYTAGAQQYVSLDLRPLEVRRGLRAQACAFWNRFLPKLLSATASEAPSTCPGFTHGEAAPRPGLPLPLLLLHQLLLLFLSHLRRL

[2] = molecular target: T1, AChE; test: Solvent deuterium oxide kinetic isotope effect on decarbamoylation; format: biochemical; conditions: 25 °C, pH 7.0, mean ± SE
Target sequence in this assay (P22303 32-617 isoform P22303-2 limits assumed): as above

[3] = molecular target: T1, AChE; conditions: for k21 × 10^6 (decarbamoylation rate constant): 25 °C, absence of carbamate, mean ± SEM of n measurements
Target sequence in this assay (P22303 32-617 isoform P22303-2 limits assumed): as above

[4] = molecular target: T1, AChE; conditions: after carbamoylation of hAChE; cited from earlier work
Target sequence in this assay (P22303 32-617 isoform P22303-2 limits assumed): as above

[5] = Stability of aqueous solutions; format: physicochemical
[6] = molecular target: T1, AChE; test: Carbamoylation of AChE, qualitative observations; format: biochemical
Target sequence in this assay (P22303 32-614): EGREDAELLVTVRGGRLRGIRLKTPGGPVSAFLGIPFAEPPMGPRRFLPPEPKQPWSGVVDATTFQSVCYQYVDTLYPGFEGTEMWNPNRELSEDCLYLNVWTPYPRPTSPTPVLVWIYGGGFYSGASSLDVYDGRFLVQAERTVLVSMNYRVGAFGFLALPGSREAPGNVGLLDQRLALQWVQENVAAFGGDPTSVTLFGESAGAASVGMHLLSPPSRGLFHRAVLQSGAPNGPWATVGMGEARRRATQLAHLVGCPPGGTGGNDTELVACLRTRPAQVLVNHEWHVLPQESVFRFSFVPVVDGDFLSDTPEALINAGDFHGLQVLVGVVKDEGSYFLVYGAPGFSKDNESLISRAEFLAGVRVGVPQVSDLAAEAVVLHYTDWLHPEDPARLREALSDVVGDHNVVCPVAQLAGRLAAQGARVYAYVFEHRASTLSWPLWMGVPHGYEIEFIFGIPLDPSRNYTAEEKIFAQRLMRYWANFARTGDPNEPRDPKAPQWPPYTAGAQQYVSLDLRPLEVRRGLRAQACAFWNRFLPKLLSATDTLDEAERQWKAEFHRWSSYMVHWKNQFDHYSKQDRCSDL

[7] = molecular target: T1, AChE; test: Literature carbamoylation and decarbamoylation of AChE; format: biochemical
Target sequence in this assay (P22303 32-614): as above

[8] = molecular target: T1, AChE; conditions: cited from earlier work
Target sequence in this assay (P22303 32-614): as above

[9] = test system: AChE in rat brain; conditions: in vivo, 37 °C; cited from earlier work
[10] = k12 data fitted to Eq. 1a, 25 °C

CNC(=O)Oc1cccc([N+](C)(C)C)c1 [Monomethyl neostigmine]
k21 ([1]; first protocol, Figure 2, paper calls estimates below 0.01 min^−1 unreliable): 0.013 min⁻¹ | k2/KD ([1]; fitted to Eq. 1a): 16 ± 2 min^−1μM^−1 | Kd [1, 10]: 3.2 ± 0.4 µM | k2 (carbamoylation) [1, 10]: 51 ± 2 min⁻¹ | k21 ^H2O / k21^D2O (deuterium oxide kinetic isotope effect on k21) ([2]; listed as N-monomethyl HTMA): 2.8 ± 0.2 | k21 ^H2O / k21^D2O (deuterium oxide kinetic isotope effect on k21) ([2]; listed as N-monomethyl neostigmine): 2.8 | k21 × 10^6 (decarbamoylation rate constant) ([3]; second protocol): 12300 ± 400 min^−1 | R (fraction of total enzyme carbamoylated at reaction initiation) ([3]; after spin column, Figure 3 fit): 0.90 | k21 ([3]; second protocol, Figure 3a fit, 0.25 mM acetylthiocholine): 12.9 ± 0.02 × 10^−3 min^−1

CN(C)C(=O)Oc1cccc([N+](C)(C)C)c1 [neostigmine, reference compound]
k21 ^H2O / k21^D2O (deuterium oxide kinetic isotope effect on k21) [2]: 2.4 ± 0.2 | k21 × 10^6 (decarbamoylation rate constant) ([3]; second protocol): 3600 ± 300 min^−1

CNC(=O)Oc1cccc2ccccc12 [carbaryl, reference compound]
k21 × 10^6 (decarbamoylation rate constant) ([3]; second protocol): 11300 ± 600 min^−1

C[C@@H]1CN(CCCCCCCCNC(=O)Oc2ccc3c(c2)[C@]2(C)CCN(C)[C@@H]2N3C)C[C@H](C)O1 [MF268]
k21 [4]: too small to be measured

CCN(C)C(=O)Cl [EMCC, N-ethyl–N-methylcarbamoyl chloride]
Stability of aqueous solutions [5]: very unstable | Carbamoylation of AChE [6]: poorly

CCN(CC)C(=O)Oc1cccc([N+](C)(C)C)c1 [N,N-diethyl HTMA]
k21 ^H2O / k21^D2O (deuterium oxide kinetic isotope effect on k21) [2]: 1.1 ± 0.2 | k21 × 10^6 (decarbamoylation rate constant) ([3]; second protocol): 16 ± 5 min^−1

C[N+](C)(C)CCOC(N)=O [carbamoyl choline]
k21 larger than that for N-monomethylcarbamoylated AChE [7]: 10 fold

CCN(C)C(=O)Oc1cccc([N+](C)(C)C)c1 [N-ethyl-N-methyl HTMA]
k21 ^H2O / k21^D2O (deuterium oxide kinetic isotope effect on k21) [2]: 1.8 ± 0.2 | k21 × 10^6 (decarbamoylation rate constant) ([3]; second protocol): 150 ± 20 min^−1

CCN(CC)C(=O)OCC[N+](C)(C)C [N,N-diethylcarbamoyl choline, reference compound]
Formation of N,N-diethylcarbamoylated AChE [8]: failed to detect

CCN(CC)C(=O)F [N,N-diethyl F, N,N-diethylcarbamoyl fluoride]
k21 × 10^6 (decarbamoylation rate constant) ([3]; second protocol): 7 ± 1 min^−1 | Formation of N,N-diethylcarbamoylated AChE [8]: failed to detect | Recovery half time of AChE [9]: 182 h
